Bounds are passed on as bounds.

The values below come from patent US7176185B2, “Short peptide carrier system for cellular delivery of agent” (TSRL, Inc., priority 2003, dated 2007).

For data set [1] the following is noted: literature value (Bretschneider et al. 1999); 'parenteral' marks drugs given parenterally; cited from earlier work.
Data set [2] addresses T1, hpept1 dipeptide transporter (Homo sapiens, UniProt P46059).
T1 construct: expressed in transfected cells; host or cells: DC5 = human medulloblastoma cell line Dpar transfected with a eukaryotic expression plasmid holding the hPept1 gene
T1 sequence (P46059 1-708): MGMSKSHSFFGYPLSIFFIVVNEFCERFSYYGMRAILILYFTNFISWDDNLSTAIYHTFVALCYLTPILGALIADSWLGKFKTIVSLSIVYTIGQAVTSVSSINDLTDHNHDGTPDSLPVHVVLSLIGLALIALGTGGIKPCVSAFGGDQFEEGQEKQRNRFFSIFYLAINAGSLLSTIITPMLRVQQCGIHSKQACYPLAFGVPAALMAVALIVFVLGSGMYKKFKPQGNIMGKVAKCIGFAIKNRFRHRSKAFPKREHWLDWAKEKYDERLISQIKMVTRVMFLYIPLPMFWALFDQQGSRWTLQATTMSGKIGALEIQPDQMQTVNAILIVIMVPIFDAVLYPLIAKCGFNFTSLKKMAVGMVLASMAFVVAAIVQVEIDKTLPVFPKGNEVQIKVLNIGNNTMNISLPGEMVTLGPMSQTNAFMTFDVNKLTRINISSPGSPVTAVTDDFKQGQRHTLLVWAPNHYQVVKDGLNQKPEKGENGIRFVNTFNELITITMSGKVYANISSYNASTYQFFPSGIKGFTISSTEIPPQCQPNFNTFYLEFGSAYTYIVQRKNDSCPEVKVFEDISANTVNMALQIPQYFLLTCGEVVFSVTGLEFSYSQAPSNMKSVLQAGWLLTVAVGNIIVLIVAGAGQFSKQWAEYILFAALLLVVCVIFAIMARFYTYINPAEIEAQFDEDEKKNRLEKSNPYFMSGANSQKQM
The data set can be described thus: Inhibition of 3H-Gly-Sar uptake in DC5 cell line (Ki determination). It counts as cell-based. The conditions noted are these: 50 uM 3H-Gly-Sar, 10 min, 37° C., unit inferred, mM, read-out: TSRL - Ki. The text has this: The developed system functions as an initial screen for interaction with the dipeptide transporter by measuring the ability of a given test compound to inhibit the uptake of the marker dipeptide ^3H-Gly-Sar. Using this system in a 96-well format, one can rapidly screen compounds for their ability to bind to the dipeptide transporter by measuring the inhibition constant (Ki) of the compound against Gly-Sar uptake. In this assay, a positive result indicates binding, but not necessarily transport. Positive results are assessed for actual transport in conventional uptake assays.
The inhibitory Ki for a given compound is determined in DC5 cell line using the radioactive substrate 3H-glycine-sarcosine (GS). DC5 cells were plated (12,000 cells/well) in 96-well tissue culture plates (Falcon) and allowed to grow for 2 days. The cells were washed once with 200 ul of uptake buffer and aspirated. The plates were cooled to 4° C. and 25 ul of uptake buffer containing 50 uM Gly-Sar (0.5 uCi/ml) was added. The uptake buffer also contained the test β-lactam antibiotic, Cefaclor, over a range of concentrations. Uptake was initiated by placing the plate in a shaker water bath (37° C.) and terminated at 10 min by rapid washing with multiple changes of 4° C. PBS (Sigma). The radioactive peptide was extracted from the cell layer with 200 ul of methanol:water (1:1) and counted in 4 ml of CytoScint ES™ scintillation cocktail (ICN). Non-linear regression analysis of the data was used to determine the IC50 using the solver function in Microsoft Excel spreadsheets.

In the next data set the target is T2, hPepT1 (Homo sapiens, UniProt P46059).
T2 construct: expressed in transfected cells; host or cells: DC5 = human medulloblastoma cell line Dpar transfected with a eukaryotic expression plasmid holding the hPept1 gene
T2 sequence (P46059 1-708): T1 sequence (P46059 1-708)
Briefly: Inhibition of LALA uptake into DC5 cells by competitive substrates. Conditions: 30 minutes; for Inhibition of LALA uptake (FIG. 7, specificity): 25 μM LALA, 20 mM dipeptide or 40 mM amino acid. It counts as cell-based. On the procedure:
After 30 minutes the cells are washed and the fluorescence measured in the cells.
DC5 and Dpar cells are incubated in transport buffer and the indicated concentrations of LALA added ? and (¦), respectively. These experiments are repeated in the presence of 20 mM Gly-Pro for DC5 (⋄) and Dpar (?). After 30 minutes, the cells are washed and processed for fluorescent determination. […] After 30 minutes the cells are washed and the fluorescence measured in the cells. […] Fluorescence imagining of LALA in DC5 cells is shown in FIG. 8, where cells on a polylysine coated slide are incubated in the transport buffer with 50 μM LALA in the presence (right image) or absence (left image) the hPepT1 competitive inhibitor Gly-Pro (20 mM) for 20 minutes at room temperature. Cells are washed with cold PBS and viewed with an inverted microscope and imaged with a digital camera, with the images being at the same magnification and exposure time.

The next data set has as its system Dpar cells. Briefly: LALA fluorescent uptake in parental Dpar cells. In kind it is cell-based, human. The conditions noted are these: 30 minutes, fluorescence. On the procedure:
(§1) FIG. 6 is a graph showing the uptake of LALA in DC5 and Dpar as a function of LALA concentration. DC5 and Dpar cells are incubated in transport buffer and the indicated concentrations of LALA added ? and (¦), respectively. These experiments are repeated in the presence of 20 mM Gly-Pro for DC5 ? and Dpar (?). After 30 minutes, the cells are washed and processed for fluorescent determination.
FIG. 7 is a bar graph showing specificity of LALA uptake. 25 μM of LALA is incubated in the presence 20 mM Gly-Sar ? 20 mM Gly-Pro ? 40 mM phenylalanine ? and 40 mM proline ? in either the DC5 or the Dpar, cell line. After 30 minutes the cells are washed and the fluorescence measured in the cells. […] There is minimal LALA uptake in the parental line Dpar.
(§2) […] and not Dpar specifically uptake LALA. […] After 30 minutes the cells are washed and the fluorescence measured in the cells. […] Because the marker probe is fluorescent, the system is amenable to more rapid throughput, through the use of automated fluorescent plate readers. Fluorescence imagining of LALA in DC5 cells is shown in FIG. 8, where cells on a polylysine coated slide are incubated in the transport buffer with 50 μM LALA in the presence (right image) or absence (left image) the hPepT1 competitive inhibitor Gly-Pro (20 mM) for 20 minutes at room temperature. […]

Data set [3] deals with T3, DC5 cell line overexpressing HPEPT1 (Homo sapiens, UniProt P46059).
T3 construct: expressed in transfected cells; host or cells: DC5 = human medulloblastoma cell line Dpar transfected with a eukaryotic expression plasmid holding the hPept1 gene
T3 sequence (P46059 1-708): T1 sequence (P46059 1-708)
The data set can be described thus: LALA fluorescent uptake in DC5 cells. It counts as cell-based. Conditions: transport buffer, 30 minutes, fluorescence. On the procedure: as §1
as §2, with “LALA. DC5 and Dpar cells are incubated in transport buffer and the indicated concentrations of LALA added ? and (¦), respectively. These experiments are repeated in the presence of 20 mM Gly-Pro for DC5 (⋄) and Dpar (?). After 30 minutes, the cells are washed and processed for fluorescent determination.” for “LALA.”

On to `N[C@@H](C(=O)N[C@@H]1C(=O)N2C(C(=O)O)=C(Cl)CS[C@H]12)c1ccccc1` [Cefaclor], for which the Bioavailability in data set [1] is listed as 100. In data set [2], the Ki (in general, the dissociation constant of the complex between target and ligand, obtained from inhibition or displacement) turned out to be 5.39 mM.

Turning to `CC1=C(C(=O)O)N2C(=O)[C@@H](NC(=O)[C@H](N)c3ccc(O)cc3)[C@H]2SC1` [Cefadroxil], the Bioavailability in data set [1] is 100. The Ki in data set [2] is 2.7 mM.

In the case of `Cn1nnnc1SCC1=C(C(=O)O)N2C(=O)[C@@H](NC(=O)[C@H](O)c3ccccc3)[C@H]2SC1` [Cefamandole], in data set [1], the Bioavailability is reported as less than 1 parenteral. Further, in data set [2], the Ki is 16.4 mM.

As to `CO/N=C(\C(=O)N[C@@H]1C(=O)N2C(C(=O)O)=C(CSc3nc(=O)c(=O)[nH]n3C)CS[C@H]12)c1csc(N)n1` [Ceftriaxon], the Bioavailability in data set [1] is listed as less than 5 parenteral. Moreover, the inhibitory constant (Ki) in data set [2] is more than 20 mM.

As to `CO/N=C(\C(=O)N[C@@H]1C(=O)N2C(C(=O)O)=C(COC(N)=O)CS[C@H]12)c1ccco1` [Cefuroxime], the Bioavailability in data set [1] is on record as less than 1 parenteral. Besides, in data set [2], the Ki was found to be 23.2 mM.

`CC(=O)OCC1=C(C(=O)O)N2C(=O)[C@@H](NC(=O)Cc3cccs3)[C@H]2SC1` [Cephalothin]: the Bioavailability in data set [1] is less than 5 parenteral. In addition, in data set [2], the Ki is 11.1 mM.

Turning to `CC1=C(C(=O)O)N2C(=O)[C@@H](NC(=O)[C@H](N)C3=CCC=CC3)[C@H]2SC1` [Cephradine], the Bioavailability in data set [1] is recorded as 100. In addition, the inhibition constant (Ki) in data set [2] was determined as 7.02 mM.

In the case of `NCC(=O)O.O=C(O)[C@@H]1CCCN1` [Gly-Pro, Glycine-Proline], the “Inhibition of LALA uptake (FIG. 7, specificity)” value on hPepT1 was “strongly inhibited”. In addition, at hPepT1 (20 mM Gly-Pro, range of LALA concentrations), the “Inhibition of LALA uptake (FIGS. 5 and 6)” value was “strongly inhibited”.

Take `Cc1c(CC(=O)NCCCCC(NC(=O)C(C)N)C(=O)O)c(=O)oc2cc(N)ccc12` [LALA, L-Ala-Lys-Nε-AMCA]: the “LALA uptake in parental line Dpar” value in the data set with Dpar cells is listed as “minimal”. In addition, in data set [3], the “LALA uptake in DC5” value is “specifically taken up”.

With `N[C@@H](Cc1ccccc1)C(=O)O` [phenylalanine], the “Inhibition of LALA uptake (FIG. 7, specificity)” value at hPepT1 is listed as “not by amino acids”.

For `O=C(O)[C@@H]1CCCN1` [proline], the “Inhibition of LALA uptake (FIG. 7, specificity)” value on hPepT1 is recorded as “not by amino acids”.
